In patent publication US20050165024A1, “Urea derivatives as kinase modulators” (Ambit Biosciences Corporation, priority 2003, published 2005):

Target: T1, p38-alpha(FKIN) (Homo sapiens, UniProt Q16539)
T1 construct: made in house
Assay: Binding constant (Kd) measurement, phage-displayed kinase competition binding assay: p38
Conditions: Kd class symbols
From the text: (§1) The term “ND” represents non-determined values.

T1 sequence (Q16539 whole entry): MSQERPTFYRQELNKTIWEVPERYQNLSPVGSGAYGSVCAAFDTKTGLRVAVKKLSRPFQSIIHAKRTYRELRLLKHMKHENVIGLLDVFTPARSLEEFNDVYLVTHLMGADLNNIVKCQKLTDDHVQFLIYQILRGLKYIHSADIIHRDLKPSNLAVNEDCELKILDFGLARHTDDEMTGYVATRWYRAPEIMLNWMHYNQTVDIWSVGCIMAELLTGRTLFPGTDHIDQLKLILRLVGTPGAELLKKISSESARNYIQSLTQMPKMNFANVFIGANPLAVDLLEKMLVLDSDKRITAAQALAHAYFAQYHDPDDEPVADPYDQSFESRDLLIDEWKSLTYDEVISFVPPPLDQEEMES

Kd [nM]	Compound
100 to 1000	CC(C)(C)c1cc(NC(=O)Nc2ccc(NC(=O)c3cccnc3)cc2)no1
1000 to 10000	Cc1ccc(NC(=O)Nc2cc(C(C)(C)C)on2)cc1
1000 to 10000	C[S+]([O-])c1ccc(NC(=O)Nc2cc(C(C)(C)C)on2)cc1 (stereo not drawn)
1000 to 10000	COc1ccc(NC(=O)Nc2cc(C(C)(C)C)on2)cc1
1000 to 10000	CSc1ccc(NC(=O)Nc2cc(C(C)(C)C)on2)cc1
1000 to 10000	CC(C)(C)c1cc(NC(=O)Nc2ccc(Cl)cc2)no1
1000 to 10000	CC(C)(C)c1cc(NC(=O)Nc2ccc(O)cc2)no1
1000 to 10000	CC(C)(C)c1cc(NC(=O)Nc2ccc(NC(=O)c3cnc4ccccc4c3)cc2)no1 [drawing 680]

Further lines, the molecule ahead of its results:

Compound	Kd [nM]
NC(=O)c1cc(Oc2ccc(Nc3c(Nc4ccc(Cl)c(C(F)(F)F)c4)c(=O)c3=O)cc2)ccn1	100 to 1000
Cc1ccc(-n2nc(C(C)(C)C)cc2NC(=O)Nc2ccc(Cl)c(C(F)(F)F)c2)cc1	100 to 1000
Cc1c(Cl)cccc1NC(=O)Nc1cc(C(C)(C)C)on1	100 to 1000
Cc1ccc(-n2nc(C(C)(C)C)cc2NC(=O)Nc2ccc(O)cc2)cc1	100 to 1000
Cc1ccc(-n2nc(C(C)(C)C)cc2NC(=O)Nc2ccc(Cl)cc2)cc1	< 100
Cc1ccc(-n2nc(C(C)(C)C)cc2NC(=O)Nc2ccc(OCc3ccccc3)cc2)cc1	100 to 1000
CC(C)(C)c1cc(NC(=O)NCc2cccc(Cl)c2)no1	100 to 1000
Cc1ccc(-n2nc(C(C)(C)C)cc2NC(=O)Nc2cc(C(C)(C)C)on2)cc1	100 to 1000
CSc1ccc(NC(=O)Nc2cc(C(C)(C)C)no2)cc1	1000 to 10000
O=C(Nc1ccccc1)Nc1cc(Cl)c([N+](=O)O)cc1O	100 to 1000
Cc1ccc(-n2nc(C(C)(C)C)cc2NC(=O)Nc2ccc(OCCN3CCOC(CO)C3)c3ccccc23)cc1 (stereo not drawn)	< 100
CC(C)(C)c1cc(NC(=O)Nc2ccc(Cl)cc2)on1	1000 to 10000
Cn1nc(C(C)(C)C)cc1NC(=O)Nc1cccc2ccccc12	100 to 1000
Cc1ccc(-n2nc(C(C)(C)C)cc2NC(=O)Nc2ccc(Br)cc2C(F)(F)F)cc1	100 to 1000
COc1ccc(NC(=O)Nc2cc(C(C)(C)C)nn2-c2ccc(C)cc2)cc1	100 to 1000
COc1ccc(NC(=O)Nc2cc(C(C)(C)C)no2)cc1	1000 to 10000
CC(C)(C)c1cc(NC(=O)Nc2ccc(OCCN3CCCCC3)c3ccccc23)no1	< 100
CC(C)(C)c1cc(NC(=O)Nc2ccccc2)no1	1000 to 10000
CC(C)(C)c1cc(NC(=O)Nc2ccc(Br)cc2F)on1	100 to 1000

Target: T2, MKNK2 (DKIN) (Homo sapiens, UniProt Q9HBH9)
T2 construct: (DKIN); made in house
Assay: Binding constant (Kd) measurement, phage-displayed kinase competition binding assay: MKNK2
Conditions: Kd class symbols
From the text: as §1

T2 sequence (Q9HBH9 84-388 limits assumed): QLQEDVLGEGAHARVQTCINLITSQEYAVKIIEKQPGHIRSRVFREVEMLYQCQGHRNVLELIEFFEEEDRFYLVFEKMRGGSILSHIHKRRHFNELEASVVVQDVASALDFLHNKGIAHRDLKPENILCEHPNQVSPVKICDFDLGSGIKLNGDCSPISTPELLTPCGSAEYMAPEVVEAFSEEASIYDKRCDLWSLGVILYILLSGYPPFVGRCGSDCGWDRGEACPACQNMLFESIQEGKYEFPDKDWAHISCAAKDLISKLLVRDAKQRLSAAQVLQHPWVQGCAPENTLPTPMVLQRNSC

Kd [nM]	Compound
< 100	CC(C)(C)c1cc(NC(=O)Nc2ccc(NC(=O)c3ncccc3O)cc2)no1 [drawing 687]
1000 to 10000	CC(C)(C)c1cc(NC(=O)Nc2ccc(NC(=O)c3cccc4nsnc34)cc2)no1
1000 to 10000	Cc1cnc(C(=O)Nc2ccc(NC(=O)Nc3cc(C(C)(C)C)on3)cc2)c(C(=O)O)n1
< 100	CC(C)(C)c1cc(NC(=O)Nc2ccc(NC(=O)c3cnnc4ccccc34)cc2)no1
< 100	CC(C)(C)c1cc(NC(=O)Nc2ccc(Nc3nc(N)nc4[nH]cnc34)cc2)no1 [drawing 691]
1000 to 10000	CC(C)(C)c1cc(NC(=O)Nc2ccc(Nc3nc(Cl)nc4[nH]cnc34)cc2)no1 [drawing 682]
< 100	CC(C)(C)c1cc(NC(=O)Nc2ccc(Nc3ncnc4[nH]cnc34)cc2)no1 [drawing 686]
100 to 1000	COc1cc(OC)nc(Oc2cccc(C(=O)Nc3ccc(NC(=O)Nc4cc(C(C)(C)C)on4)cc3)c2)n1 [drawing 693]
1000 to 10000	CC(C)(C)c1cc(NC(=O)Nc2ccc(NC(=O)c3ccc4ncccc4c3)cc2)no1
100 to 1000	Cc1cnc(C(=O)Nc2ccc(NC(=O)Nc3cc(C(C)(C)C)on3)cc2)cn1
1000 to 10000	CC(C)(C)c1cc(NC(=O)Nc2ccc(NC(=O)c3cnc4ccccc4c3)cc2)no1 [drawing 689]
100 to 1000	CC(C)(C)c1cc(NC(=O)Nc2ccc(NC(=O)c3cscn3)cc2)no1

More lines, now with the values behind:

Compound	Kd [nM]
COc1cc2nc(Cl)nc(Nc3ccc(NC(=O)Nc4cc(C(C)(C)C)on4)cc3)c2cc1OC [drawing 684]	1000 to 10000
CC(C)(C)c1cc(NC(=O)Oc2ccc(NC(=O)c3nccnc3N)cc2)no1	100 to 1000
COc1cc2ncnc(Nc3ccc(NC(=O)Nc4cc(C(C)(C)C)on4)cc3)c2cc1OC [drawing 692]	< 100

Target: T3, STK10(DKIN) (Homo sapiens, UniProt O94804)
T3 construct: STK10(DKIN); made in house
Assay: Binding constant (Kd) measurement, phage-displayed kinase competition binding assay: STK10
Conditions: Kd class symbols
From the text: as §1

T3 sequence (O94804 36-294 limits assumed): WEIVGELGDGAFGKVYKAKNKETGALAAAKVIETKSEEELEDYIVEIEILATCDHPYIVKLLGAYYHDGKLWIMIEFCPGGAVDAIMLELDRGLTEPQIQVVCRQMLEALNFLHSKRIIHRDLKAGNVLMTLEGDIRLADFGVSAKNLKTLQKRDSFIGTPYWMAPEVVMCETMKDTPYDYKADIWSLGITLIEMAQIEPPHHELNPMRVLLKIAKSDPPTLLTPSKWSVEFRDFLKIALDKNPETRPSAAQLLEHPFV

Kd [nM]	Compound
100 to 1000	CC(C)(C)c1cc(NC(=O)Nc2ccc(Nc3nc(Cl)nc4[nH]cnc34)cc2)no1 [drawing 697]
< 100	COc1cc2ncnc(Nc3ccc(NC(=O)Nc4cc(C(C)(C)C)on4)cc3)c2cc1OC [drawing 698]
1000 to 10000	COc1cc(OC)nc(Oc2cccc(C(=O)Nc3ccc(NC(=O)Nc4cc(C(C)(C)C)on4)cc3)c2)n1 [drawing 700]
100 to 1000	CC(C)(C)c1cc(NC(=O)Nc2ccc(NC(=O)c3nccnc3N)cc2)no1
< 100	CC(C)(C)c1cc(NC(=O)Nc2ccc(Nc3ncnc4[nH]cnc34)cc2)no1 [drawing 701]
100 to 1000	CC(C)(C)c1cc(NC(=O)Nc2ccc(Nc3nc(N)nc4[nH]cnc34)cc2)no1 [drawing 703]
100 to 1000	CC(C)(C)c1cc(NC(=O)Nc2ccc(NC(=O)c3ncccc3O)cc2)no1 [drawing 696]

Continued, molecule first:

Compound	Kd [nM]
COc1cc2nc(Cl)nc(Nc3ccc(NC(=O)Nc4cc(C(C)(C)C)on4)cc3)c2cc1OC [drawing 699]	< 100
CC(C)(C)c1cc(NC(=O)Nc2ccc(N3C(=O)c4ccccc4C3=O)cc2)no1	< 100
